This is an account of results in PubChem BioAssay (NCI).

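Protocol summary: plate cells (96-well), add compound at 5 concentrations, incubate 48 h, interpolate endpoints linearly. GI50 marks 50% less growth. TGI marks complete inhibition of growth.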

Assay in all cases: NCI-60 cell line screen, 48 h
The test system of experiment [1] is NCI-H226 lung.
The test system of experiment [2] is NCI-H522 lung.
Experiment [3] concerns EKVX NSCLC.
In experiment [4] the test system is RPMI-8226 leukemia.
Experiment [5] has as its system SF-539 CNS.
Experiment [6] deals with A549 NSCLC.
Experiment [7] deals with SK-OV-3 ovarian.
The subject of experiment [8] is A498 renal.
Experiment [9] concerns COLO 205 colon.
Experiment [10] relates to SN12C renal.

Consider `CC(=O)C1=C(O)C=C2Oc3c(C(=O)/C=C/c4cc(C(F)(F)F)cc(C(F)(F)F)c4)c(O)c(C)c(O)c3[C@]2(C)C1=O`, for which the GI50 was 2.34 µM in experiment [1]; 0.38 µM in experiment [2]; 0.462 µM in [3]; 0.442 µM in experiment [4]; 1.4 µM in experiment [5]; 0.666 µM in experiment [6]. For the same compound, the GI50 is 1.07 µM in experiment [7], 0.457 µM in experiment [8], 0.527 µM in [9] and 0.513 µM in experiment [10]. The TGI in experiment [1] is 5.15 µM; in experiment [2] it was 1.22 µM; in [3], 6.44 µM; in experiment [4] it was 1.28 µM; in experiment [5], 4.53 µM; in [6], 4.42 µM. Further, the TGI in [7] was determined as 5.98 µM; in [8], 1.42 µM; in [9] it was 1.75 µM; in experiment [10], 2.02 µM.
`C=C(CNC(=O)Nc1ccc(-c2ccccc2)cc1)c1ccc(C(=O)Nc2ccccc2N)cc1`: the GI50 in [1] is over 100 µM; in experiment [2], 15 µM; in experiment [3] it was over 100 µM; in experiment [4], 20.4 µM; in [5], over 100 µM; in experiment [6], over 100 µM. The GI50 was 25.9 µM in experiment [7], 37.4 µM in experiment [8], over 100 µM in experiment [9] and over 100 µM in experiment [10]. The TGI was over 100 µM in [1]; 99 µM in experiment [2]; over 100 µM in experiment [3]; over 100 µM in experiment [4]; over 100 µM in experiment [5]; over 100 µM in experiment [6]. Moreover, the TGI in [7] was 74.8 µM; in [8], over 100 µM; in [9] it was over 100 µM; in [10], over 100 µM.
Take `N#C/C(=C\c1ccccc1O)C(N)=O`: the TGI in experiment [1], in experiment [2], in [3], in [4], in [5] and in [6] was over 100 µM throughout. The TGI in experiment [7], in [8], in experiment [9] and in [10] was over 100 µM throughout.
On to `COc1cc(/C(Cl)=C/C=C/C(=O)c2c(C)[n+]([O-])c3ccc(Cl)cc3[n+]2[O-])cc(OC)c1OC`, for which the GI50 in experiment [1] was 13.3 µM; in experiment [2], 1.38 µM; in [3], 14.2 µM; in experiment [4], 2.18 µM; in experiment [5] it was 3.67 µM; in experiment [7] it was 7.4 µM. The GI50 in experiment [8] is 15.7 µM; in [9], 10 µM; in experiment [10] it was 9.1 µM. For the same compound, the TGI in experiment [1] is over 50 µM; in [2], 4.23 µM; in experiment [3] it was over 50 µM; in [4], over 50 µM; in experiment [5], over 50 µM; in [7] it was 31.5 µM. Further, the TGI was over 50 µM in experiment [8], 28.2 µM in experiment [9] and over 50 µM in experiment [10].
Regarding `Cc1[nH]ncc1-c1cc2nc(C3CC4CCN3CC4)[nH]c(=O)c2s1` (configuration not stated), the GI50 is 2.82 µM in experiment [1]; 2.75 µM in experiment [2]; 4.3 µM in experiment [3]; 18.2 µM in [4]; 1.47 µM in [5]; 2.67 µM in experiment [6]. Also, the GI50 in experiment [7] is 14.5 µM; in [8] it was 1.98 µM; in experiment [10], 3.31 µM. The TGI in experiment [1] is over 100 µM; in [2] it was 39.4 µM; in experiment [3] it was 90.2 µM; in experiment [4], over 100 µM; in [5] it was 7.74 µM; in [6], over 100 µM. The results for the TGI in experiment [7], in experiment [8] and in [10] were over 100 µM, 8.72 µM and over 100 µM, respectively.
For `O=C(Nc1ccc(Cl)cc1Cl)c1ccc(NC2=C(Cl)C(=O)N(Cc3ccccc3)C2=O)cc1`, the GI50 in [1] is 20.5 µM; in experiment [2], 31.6 µM; in experiment [3], 21.7 µM; in experiment [4], 2.84 µM; in [5], 18.9 µM; in [6] it was 25.9 µM. In addition, the GI50 is 30.3 µM in experiment [7], 31.3 µM in experiment [8], 16.3 µM in experiment [9] and 20.3 µM in experiment [10]. Besides, the TGI in [1] was 45.8 µM; in experiment [2] it was over 100 µM; in experiment [3] it was 46.1 µM; in experiment [4], 9.04 µM; in experiment [5], 33.1 µM; in experiment [6] it was 66.1 µM. Further, the TGI in experiment [7] is 78.8 µM; in [8], 79.7 µM; in experiment [9], 38.8 µM; in experiment [10], 42.8 µM.
For `COC(=O)Cc1cc(OC)c(OC)cc1Br`, the TGI in experiment [1], in experiment [2], in [3], in experiment [4], in experiment [6] and in experiment [7] was over 100 µM throughout. Also, the TGI in experiment [8], in experiment [9] and in experiment [10] was over 100 µM each time.
As for `OCCOc1ccc(-c2cc(-c3ccccn3)nc(-c3ccccn3)c2)cc1`, the TGI in experiment [1] was 4.55 µM; in [2], 14.1 µM; in experiment [3], over 100 µM; in experiment [4], over 96.7 µM; in experiment [5], 2.26 µM; in experiment [6], over 39.5 µM. Moreover, the TGI is 2.17 µM in [7], 17 µM in experiment [8], 6.29 µM in experiment [9] and over 100 µM in [10].
As to `Cc1ccccc1NC(=S)Nc1ccccn1`, the GI50 in experiment [1] is over 100 µM; in experiment [2], over 100 µM; in experiment [3] it was 49 µM; in experiment [4], 62.7 µM; in experiment [5], over 100 µM; in experiment [6] it was over 100 µM. Besides, the GI50 in experiment [7], in experiment [8], in [9] and in experiment [10] was over 100 µM in each case. For the same compound, the TGI in experiment [1], in experiment [2], in experiment [3], in experiment [4], in experiment [5] and in experiment [6] was over 100 µM in each case. The TGI in [7], in experiment [8], in [9] and in [10] was over 100 µM throughout.
As for `COc1cc(CCc2cccnc2)cc(OC)c1OC`, the TGI in experiment [1], in [2], in experiment [3], in experiment [4], in experiment [5] and in experiment [6] was over 100 µM each time. For the same compound, the TGI in [8], in [9] and in [10] was over 100 µM throughout.
Take `COc1cccc([C@H]2CC(=O)c3cc4c(cc3N2)OCO4)c1`: the GI50 in experiment [1] is 0.226 µM; in experiment [4], 0.0608 µM; in experiment [5] it was 0.084 µM; in experiment [6], 0.125 µM; in [7], 0.556 µM; in experiment [8] it was 0.265 µM. Besides, the GI50 in experiment [9] was 0.0367 µM; in experiment [10], 0.161 µM. For the same compound, the TGI in [1] is over 100 µM; in experiment [2] it was 0.698 µM; in experiment [4], 1.01 µM; in experiment [6], over 100 µM; in [7] it was over 100 µM; in [8] it was over 100 µM. The TGI in experiment [9] was 1.22 µM; in experiment [10], over 100 µM.
`CC1=C(C(=O)NCc2ccccc2)C(c2ccc(C3C(C(=O)NCc4ccccc4)=C(C)NC(C)=C3C(=O)NCc3ccccc3)cc2)C(C(=O)NCc2ccccc2)=C(C)N1`: the TGI in [1] was 33.7 µM; in [2], 10.1 µM; in experiment [3], 28.9 µM; in [4], over 100 µM; in [5], 5.52 µM; in [6], 61.3 µM. Further, the TGI amounted to 31.7 µM in [8], 21.3 µM in [9] and 20.5 µM in experiment [10].
In the case of `Cc1nc2ccc(CN(C)c3ccc(C(=O)N[C@@H](CCC(=O)O)C(=O)O)s3)cc2c(=O)[nH]1`, the TGI in experiment [1], in experiment [2], in experiment [3], in experiment [4], in experiment [6] and in experiment [7] was over 100 µM throughout. In addition, the TGI in experiment [8], in [9] and in experiment [10] was over 100 µM each time. In addition, in experiment [8], the GI50 was over 100 µM.
In the case of `CC1=CCC[C@@]2(C)C(CC[C@@H]2C(C)/C=C/C(C)C)c2ccc(cc2C(=O)O)C[C@@H](O)CC1` (some centres not stated), the TGI is 32.7 µM in experiment [1]; 29.8 µM in experiment [2]; 19.7 µM in experiment [4]; 21 µM in experiment [5]; 20.3 µM in experiment [6]; 32.3 µM in [7]. Also, the values for the TGI in experiment [8] and in experiment [10] were 35.3 µM and 30.4 µM, respectively.
